Marks after values point to notes of the source that are not given here.
How the values were obtained:
red blood cell (RBC) = details: cited from earlier work
MRSA USA300 type strain = details: mice, applied multiple times; cited from earlier work
S. aureus = details: after multiple passages with Savirin; cited from earlier work
AgrA = AgrA (Staphylococcus aureus, UniProt P0A0I7); assay: cell-based; design: species or system S. aureus USA300 strain UAMS-1625; details: for Ratio IC50 (in presence of HSA)/IC50 (in absence of HSA): 40 mg/mL HSA vs without HSA
AgrA, sequence (P0A0I7 whole entry): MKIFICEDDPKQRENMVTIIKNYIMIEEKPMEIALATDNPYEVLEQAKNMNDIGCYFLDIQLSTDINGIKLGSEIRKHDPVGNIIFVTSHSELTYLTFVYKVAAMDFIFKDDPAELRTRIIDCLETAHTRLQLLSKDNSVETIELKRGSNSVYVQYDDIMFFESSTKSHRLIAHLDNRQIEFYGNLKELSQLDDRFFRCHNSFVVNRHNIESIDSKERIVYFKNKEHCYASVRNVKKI

[1] = IC50 at 40 mg/mL HSA, LB medium supplemented with 40 mg/mL human serum albumin
[2] = IC50 without HSA, LB medium, without HSA
[3] = LB medium supplemented with 40 mg/mL human serum albumin
[4] = concentration inhibiting the expression of lacZ, in the absence of HSA or HS

| Compound | Ratio IC50 (in presence of HSA)/IC50 (in absence of HSA) (AgrA) | IC50 (AgrA; [1]) | IC50 (AgrA; [2]) | also measured |
| --- | --- | --- | --- | --- |
| CC(C)c1ccc(S(=O)(=O)c2nnn3c2nc(O)c2ccccc23)cc1 [Savirin] | – | – | – | exotoxin-induced red blood cell (RBC) lysis (red blood cell (RBC)): inhibited; abscess size and dermonecrosis (MRSA USA300 type strain): significant reduction; resistance development (S. aureus): No resistance was developed |
| Cc1ccc(S(=O)(=O)c2nnn3c2[nH]c(=O)c2ccc(N4CCN(C(C)CO)CC4)cc23)c(C)c1 (stereo not drawn) [Compound 44, 3-(2,4-dimethylbenzenesulfonyl)-8-[4-(1-hydroxypropan-2-yl)piperazin-1-yl]-4H,5H-[1,2,3]triazolo[1,5-a]quinazolin-5-one] | ++ (ratio ≤ 125) | 20.1 to 101 µM | < 2.01 µM | – |
| Cc1ccc(S(=O)(=O)c2nnn3c2[nH]c(=O)c2ccc(N4CCN(CC(F)(F)F)CC4)cc23)c(C)c1 [Compound 51, 3-(2,4-dimethylbenzenesulfonyl)-8-[4-(2,2,2-trifluoroethyl)piperazin-1-yl]-4H,5H-[1,2,3]triazolo[1,5-a]quinazolin-5-one] | ++ (ratio ≤ 125) | 19.2 to 96.1 µM | < 1.92 µM | – |
| Cc1ccc(S(=O)(=O)c2nnn3c2[nH]c(=O)c2ccc(N4CCN(C5CC5)CC4)cc23)c(C)c1 [Compound 60, 8-(4-cyclopropylpiperazin-1-yl)-3-(2,4-dimethylbenzenesulfonyl)-4H,5H-[1,2,3]triazolo[1,5-a]quinazolin-5-one] | ++ (ratio ≤ 125) | 20.9 to 104 µM | < 2.09 µM | – |
| Cc1ccc(S(=O)(=O)c2nnn3c2[nH]c(=O)c2ccc(N4C[C@H]5CNC[C@H]5C4)cc23)c(C)c1 [Compound 40, 8-[(3aR,6aS)-octahydropyrrolo[3,4-c]pyrrol-2-yl]-3-(2,4-dimethylbenzenesulfonyl)-4H,5H-[1,2,3]triazolo[1,5-a]quinazolin-5-one] | +++ (ratio ≤ 25) | 21.5 to 108 µM | 2.15 to 10.8 µM | – |
| 3-(2,4-dimethylbenzenesulfonyl)-8-{9-methyl-2,9-diazaspiro[5.5]undecan-2-yl}-1H,5H-[1,2,3]triazolo[1,5-a]quinazolin-5-one [Compound 5] | +++ (ratio ≤ 25) | – | – | IC50 at 40 mg/mL HSA (AgrA; [3]): ++ (10 μg/mL < IC50 ≤ 50 μg/mL); IC50 without HSA (AgrA; LB medium, without HSA): +++ (IC50 ≤ 1 μg/mL) |
| 4-[3-(2,4-dimethylbenzenesulfonyl)-5-oxo-4H,5H-[1,2,3]triazolo[1,5-a]quinazolin-8-yl]piperazine-1-sulfonamide [Compound 62] | ++ (ratio ≤ 125) | – | – | IC50 at 40 mg/mL HSA (AgrA; [3]): ++ (10 μg/mL < IC50 ≤ 50 μg/mL); IC50 without HSA (AgrA; LB medium, without HSA): +++ (IC50 ≤ 1 μg/mL) |
| Cc1ccc(S(=O)(=O)c2nnn3c2[nH]c(=O)c2ccc(N4CCCOCC4)cc23)c(C)c1 [Compound 48, 3-(2,4-dimethylbenzenesulfonyl)-8-(1,4-oxazepan-4-yl)-4H,5H-[1,2,3]triazolo[1,5-a]quinazolin-5-one] | ++ (ratio ≤ 125) | 22 to 110 µM | < 2.2 µM | – |
| Cc1ccc(S(=O)(=O)c2nnn3c2[nH]c(=O)c2cc(O)ccc23)c(C)c1 [46 (WO 2020/109350), reference compound] | – | – | < 2.7 µM | IC50 (AgrA; IC50 at 40 mg/mL HSA (cells marked *), marked *: activity in presence of 50% of human serum, not determined in 40 mg/mL HSA): > 135 µM; Ratio (cells marked *) (AgrA; calculated based on activity in presence of 50% of human serum): +* (ratio > 125); IC50 (AgrA; [4]): < 2.7 µM |
| Cc1ccc(S(=O)(=O)c2nnn3c2[nH]c(=O)c2cc(O)c(N4CCN(C)CC4)cc23)c(C)c1 [Compound 1, 3-(2,4-dimethylbenzenesulfonyl)-7-hydroxy-8-(4-methylpiperazin-1-yl)-4H,5H-[1,2,3]triazolo[1,5-a]quinazolin-5-one] | +++ (ratio ≤ 25) | < 21.3 µM | < 2.13 µM | – |
| Cc1ccc(S(=O)(=O)c2nnn3c2[nH]c(=O)c2ccc(N4CCC4)cc23)c(C)c1 [45 (WO 2020/109350), reference compound] | + (ratio > 125) | > 122 µM | < 2.44 µM | IC50 (AgrA; [4]): < 2.44 µM; activity in the presence of HSA (or HS), inactive at highest concentration tested (AgrA; in the presence of HSA (or HS)): > 128 µg/mL |
| 3-(2,4-dimethylbenzenesulfonyl)-8-(piperazin-1-yl)-4H,5H-[1,2,3]triazolo[1,5-a]quinazolin-5-one [Compound 23] | +++ (ratio ≤ 25) | – | – | IC50 at 40 mg/mL HSA (AgrA; [3]): ++ (10 μg/mL < IC50 ≤ 50 μg/mL); IC50 without HSA (AgrA; LB medium, without HSA): +++ (IC50 ≤ 1 μg/mL) |
| Cc1ccc(S(=O)(=O)c2n[nH]n3c2nc(=O)c2ccc(N4CCC5(CCN(C)CC5)CC4)cc23)c(C)c1 [Compound 6, 3-(2,4-dimethylbenzenesulfonyl)-8-{9-methyl-3,9-diazaspiro[5.5]undecan-3-yl}-1H,5H-[1,2,3]triazolo[1,5-a]quinazolin-5-one] | +++ (ratio ≤ 25) | 19.2 to 96 µM | 1.92 to 9.6 µM | – |
| Cc1ccc(S(=O)(=O)c2n[nH]n3c2nc(=O)c2ccc(N4CCC5(CCCN(C)C5)CC4)cc23)c(C)c1 [Compound 4, 3-(2,4-dimethylbenzenesulfonyl)-8-{2-methyl-2,9-diazaspiro[5.5]undecan-9-yl}-1H,5H-[1,2,3]triazolo[1,5-a]quinazolin-5-one] | +++ (ratio ≤ 25) | 19.2 to 96 µM | 1.92 to 9.6 µM | – |
| Cc1ccc(S(=O)(=O)c2nnn3c2[nH]c(=O)c2ccc(N4CCC(N(C)C)CC4)cc23)c(C)c1 [Compound 32, 8-[4-(dimethylamino)piperidin-1-yl]-3-(2,4-dimethylbenzenesulfonyl)-4H,5H-[1,2,3]triazolo[1,5-a]quinazolin-5-one] | +++ (ratio ≤ 25) | 20.8 to 104 µM | 2.08 to 10.4 µM | – |
| Cc1ccc(S(=O)(=O)c2nnn3c2[nH]c(=O)c2ccc(N4CCC(C(=O)O)CC4)cc23)c(C)c1 [Compound 64, 1-[3-(2,4-Dimethyl-benzenesulfonyl)-5-oxo-4,5-dihydro-[1,2,3]triazolo[1,5-a]quinazolin-8-yl]-piperidine-4-carboxylic acid] | +++ (ratio ≤ 25) | < 20.8 µM | < 2.08 µM | – |
| Cc1ccc(S(=O)(=O)c2nnn3c2[nH]c(=O)c2ccc(N4C[C@@H](C)N[C@@H](C)C4)cc23)c(C)c1 [Compound 24, 3-(2,4-dimethylbenzenesulfonyl)-8-[(3R,5S)-3,5-dimethylpiperazin-1-yl]-4H,5H-[1,2,3]triazolo[1,5-a]quinazolin-5-one] | +++ (ratio ≤ 25) | 21.4 to 107 µM | 2.14 to 10.7 µM | – |
| Cc1ccc(S(=O)(=O)c2nnn3c2[nH]c(=O)c2cc(O)c(N4CC5(CN(C)C5)C4)cc23)c(C)c1 [Compound 2, 3-(2,4-dimethylbenzenesulfonyl)-7-hydroxy-8-{6-methyl-2,6-diazaspiro[3.3]heptan-2-yl}-4H,5H-[1,2,3]triazolo[1,5-a]quinazolin-5-one] | +++ (ratio ≤ 25) | < 20.8 µM | < 2.08 µM | – |
| Cc1ccc(S(=O)(=O)c2n[nH]n3c2nc(=O)c2ccc(N4CC5(CC(O)C5)C4)cc23)c(C)c1 [Compound 20, 3-(2,4-dimethylbenzenesulfonyl)-8-{6-hydroxy-2-azaspiro[3.3]heptan-2-yl}-1H,5H-[1,2,3]triazolo[1,5-a]quinazolin-5-one] | ++ (ratio ≤ 125) | 21.5 to 107 µM | < 2.15 µM | – |
